From patent US20210395256A1, “TYROSINE KINASE INHIBITORS, COMPOSITIONS AND METHODS THERE OF” (Betta Pharmaceuticals Co., Ltd., priority 2018, published 2021)
pIC50: −log10 of the molar value. Read-outs that look alike come from different tables or passages of the source.

What was measured:
TrkA kinase = TrkA kinase (Homo sapiens, UniProt P04629); test: TrkA kinase assay (mobility shift assay); assay type: biochemical; conditions: read-out: Trk A Kinase IC50
How it was run: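 Caliper mobility-shift readout of FAM-labelled peptide conversion by TrkA in 50 mM HEPES pH 7.5, 0.0015% Brij-35, with ATP; enzyme preincubated 10 min with compound (10-point dilution), reaction at 28 °C, EDTA stop. Inhibition relative to DMSO and no-enzyme controls; IC50 by four-parameter fit.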

Ba/F3-TPM3-NTRK1 = biological target: T1, Ba/F3-TPM3-NTRK1 (Homo sapiens, UniProt P04629); test: Ba/F3-TPM3-NTRK1 cells proliferation assay; assay type: cell-based; conditions: 72 h, CellTiter Glo
T1 construct: expressed in transfected cells; host or cells: Ba/F3; the other entry of the earlier key: TPM3 (P06753, Tropomyosin alpha-3 chain)
Procedure: (§1) Example 202 Ba/F3-TPM3-NTRK1 and Ba/F3-ETV6-NTRK3 cells proliferation assay
(§2) Cell line: Ba/F3 cells with TPM3-NTRK1 or ETV6-NTRK3 fusion mutation gene stably overexpressed named Ba/F3-TPM3-NTRK1 and Ba/F3-ETV6-NTRK3.
(§3) RPMI 1640 and 10% FBS and 1% PS and 2 ug/mL puromycin.
(§4) b) Collect cell to a 15 mL centrifuged tube, centrifuge at 1000 rpm for 5 min. Discard the supernatant, count, and make the cell density at 1.49×10^4 cells/mL, then place it in a 37° C., 5% CO2 incubator.
(§5) a) The test compound (20 mM stock solution) was diluted to 60 μM with 100% DMSO as starting concentration then 3-fold serial diluted with “9+0” concentrations. in a 96-well dilution plate (Thermo, Cat. No. 249944);
(§6) b) The above compound solution was diluted 1:20 times with culture medium to prepare a 10 fold working solution;
(§7) a) Take cells in log phase growth, centrifuge at 1000 rpm for 5 min, then resuspend the cells with culture medium, then count cells;
(§8) b) Cells were seeded to 96-well cell culture plate with density at 2000 cells/well;
(§9) a) Compounds prepared at step 2 were added to cell plate with 15 μL per well, the final concentrations were 300, 100, 33.33, 11.11, 3.70, 1.23, 0.41, 0.14, 0.05 and 0 nM, and the final concentration of DMSO was 0.5%. The blank control well was a culture medium (0.5% DMSO);
(§10) c) The cells were incubated for an additional 72 h in the incubator.
(§11) a) Remove the 96-well cell culture plate and add 50 μl of CTG reagent (CellTiter Glo kit, promega, Cat #G7573).
(§12) b) Plate was shaked for 2 min and then let it cool for 30 min at room temperature.
(§13) c) The Luminescence signal value was read using a PerkinElmer reader.
(§14) Experimental Data Analysis
(§15) Data were analyzed using GraphPad Prism 6.0 software to obtain a fitted curve of compound activity.
(§16) Fit the Compound IC50 from non-linear regression equation:
(§17) Y=Bottom+(Top-Bottom)/(1+10^((Log IC50-X)×HillSlope));
(§18) X: The log of the concentration of the compound; Y: Luminescence value.

Ba/F3-ETV6-NTRK3 = biological target: T2, Ba/F3-ETV6-NTRK3 (Homo sapiens, UniProt Q16288); test: Ba/F3-ETV6-NTRK3 cells proliferation assay; assay type: cell-based; conditions: 72 h, CellTiter Glo
T2 construct: Ba/F3 cells with TPM3-NTRK1 or ETV6-NTRK3 fusion mutation gene stably overexpressed named Ba/F3-TPM3-NTRK1 and Ba/F3-ETV6-NTRK3; fused on or other part: P41212 (Transcription factor ETV6)
Procedure: as §1, §2, §3, §4, §5, §6, §7, §8, §9, §10, §11, §12, §13, §14, §15, §16, §17, §18

NTRK1-G595R = NTRK1-G595R (Homo sapiens, UniProt P04629, G595R); test: NTRK1-G595R cell proliferation assay (Table 13); assay type: cell-based
[1] = Liver microsomes metabolic stability assay, human; assay type: in vitro ADME; conditions: human liver microsomes 0.5 mg/mL, 37° C.; for half-life at 2 μM: read-out: t1/2 Human
How it was run: (§19)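 Pooled human, male rat or male mouse liver microsomes (0.5 mg/mL final) incubated at 37° C with 2 μM compound, with or without 1 mM NADPH. Samples at 0-60 min quenched in cold acetonitrile and analyzed by LC-MS/MS in duplicate. t1/2 derived from ln(% remaining) vs time slope, converted to CLint (μL/min/mg).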

[2] = Liver microsomes metabolic stability assay, rat; assay type: in vitro ADME; conditions: male, rat liver microsomes 0.5 mg/mL, 37° C.; for half-life at 2 μM: read-out: t1/2 Rat
How it was run: as §19

[3] = Liver microsomes metabolic stability assay, mouse; assay type: in vitro ADME; conditions: male, mouse liver microsomes 0.5 mg/mL, 37° C.; for half-life at 2 μM: read-out: t1/2 Mouse
How it was run: as §19

T2 sequence (Q16288 whole entry, the tested form may be a part): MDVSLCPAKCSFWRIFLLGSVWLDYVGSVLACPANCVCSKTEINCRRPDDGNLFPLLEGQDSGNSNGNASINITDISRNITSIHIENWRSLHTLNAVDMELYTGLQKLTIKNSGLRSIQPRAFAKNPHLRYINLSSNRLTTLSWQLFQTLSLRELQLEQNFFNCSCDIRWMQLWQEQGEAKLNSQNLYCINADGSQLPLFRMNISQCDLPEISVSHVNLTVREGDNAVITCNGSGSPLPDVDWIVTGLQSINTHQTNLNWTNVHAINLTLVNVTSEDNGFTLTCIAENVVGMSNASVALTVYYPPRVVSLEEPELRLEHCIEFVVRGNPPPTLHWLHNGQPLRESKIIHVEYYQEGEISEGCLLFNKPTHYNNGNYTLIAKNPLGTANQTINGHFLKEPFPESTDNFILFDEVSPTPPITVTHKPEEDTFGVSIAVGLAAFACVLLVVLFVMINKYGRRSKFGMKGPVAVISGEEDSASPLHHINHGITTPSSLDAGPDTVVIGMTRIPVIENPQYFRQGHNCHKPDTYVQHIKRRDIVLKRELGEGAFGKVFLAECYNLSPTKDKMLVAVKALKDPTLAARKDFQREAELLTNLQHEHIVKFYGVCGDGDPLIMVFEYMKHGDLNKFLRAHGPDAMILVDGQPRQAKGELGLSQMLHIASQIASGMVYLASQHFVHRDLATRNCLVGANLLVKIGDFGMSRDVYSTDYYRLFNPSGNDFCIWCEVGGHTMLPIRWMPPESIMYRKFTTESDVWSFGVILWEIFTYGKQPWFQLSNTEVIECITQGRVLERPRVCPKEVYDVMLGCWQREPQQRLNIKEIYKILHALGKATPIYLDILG
Sequence of NTRK1-G595R (P04629 33-796 G595R): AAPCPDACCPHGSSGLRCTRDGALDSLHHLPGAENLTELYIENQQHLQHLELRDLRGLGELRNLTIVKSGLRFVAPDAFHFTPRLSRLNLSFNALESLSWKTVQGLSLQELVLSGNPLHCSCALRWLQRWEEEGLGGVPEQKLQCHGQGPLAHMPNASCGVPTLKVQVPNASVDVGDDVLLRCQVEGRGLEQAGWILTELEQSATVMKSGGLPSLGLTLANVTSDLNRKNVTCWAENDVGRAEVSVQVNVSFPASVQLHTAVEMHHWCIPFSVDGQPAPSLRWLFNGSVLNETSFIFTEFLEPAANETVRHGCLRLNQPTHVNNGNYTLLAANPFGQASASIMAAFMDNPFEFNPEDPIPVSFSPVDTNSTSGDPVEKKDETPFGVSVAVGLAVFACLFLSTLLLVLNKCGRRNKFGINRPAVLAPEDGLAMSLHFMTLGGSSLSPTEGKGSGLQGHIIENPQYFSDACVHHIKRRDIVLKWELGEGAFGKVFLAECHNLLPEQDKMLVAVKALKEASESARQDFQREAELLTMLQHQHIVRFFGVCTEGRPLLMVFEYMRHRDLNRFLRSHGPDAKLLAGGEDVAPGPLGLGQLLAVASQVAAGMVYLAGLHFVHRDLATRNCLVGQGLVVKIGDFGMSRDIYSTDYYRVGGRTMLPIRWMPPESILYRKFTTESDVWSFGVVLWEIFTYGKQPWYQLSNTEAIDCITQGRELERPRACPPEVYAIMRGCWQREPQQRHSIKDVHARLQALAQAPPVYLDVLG
Sequence of TrkA kinase (P04629 33-796): as the sequence (P04629 33-796 G595R) above, with R563G counted along it
T1 sequence (P04629 510-796 limits assumed): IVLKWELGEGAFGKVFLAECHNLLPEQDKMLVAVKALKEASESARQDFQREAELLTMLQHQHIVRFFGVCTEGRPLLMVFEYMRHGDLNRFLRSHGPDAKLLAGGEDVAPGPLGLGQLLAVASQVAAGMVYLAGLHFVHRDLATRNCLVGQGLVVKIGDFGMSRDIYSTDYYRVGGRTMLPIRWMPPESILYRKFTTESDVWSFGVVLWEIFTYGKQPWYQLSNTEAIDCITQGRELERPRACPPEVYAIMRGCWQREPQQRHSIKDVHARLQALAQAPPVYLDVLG

Row | SMILES | pIC50 (TrkA kinase; numeric values) | pIC50 (Ba/F3-TPM3-NTRK1) | pIC50 (Ba/F3-ETV6-NTRK3) | pIC50 (NTRK1-G595R) | microsomal CLint at 2 μM [1] [µL/min/mg] | half-life at 2 μM [1] [min] | microsomal CLint at 2 μM [2] [µL/min/mg] | half-life at 2 μM [2] [min] | microsomal CLint at 2 μM [3] [µL/min/mg] | half-life at 2 μM [3] [min] | pIC50 (TrkA kinase; class symbols)
1 | COc1cc2nc(-c3cnn4ccc(N5CCC[C@@H]5c5cc(F)ccc5F)nc34)[nH]c2cc1C#N [Compound 125, (R)-2-(5-(2-(2,5-difluorophenyl)pyrrolidin-1-yl)pyrazolo[1,5-a]pyrimidin-3-yl)-5-methoxy-1H-benzo[d]imidazole-6-carbonitrile] | 8.96 | 8.86 | 8.66 | 7.33 | 17.2 | 80.6 | 15 | 92.4 | 16.4 | 84.5 | –
2 | CSc1cc2nc(-c3cnn4ccc(N5CCC[C@@H]5c5cc(F)ccc5F)nc34)[nH]c2cc1C#N [Compound 126, (R)-2-(5-(2-(2,5-difluorophenyl)pyrrolidin-1-yl)pyrazolo[1,5-a]pyrimidin-3-yl)-5-(methylthio)-1H-benzo[d]imidazole-6-carbonitrile] | – | 8.98 | – | 6.98 | 42.2 | 32.8 | 21 | 66 | 33.4 | 41.5 | ≥ 8.00
3 | N#Cc1cc2nc(-c3cnn4ccc(N5CCC[C@@H]5c5cc(F)ccc5F)nc34)[nH]c2cc1C#N [Compound 148, (R)-2-(5-(2-(2,5-difluorophenyl)pyrrolidin-1-yl)pyrazolo[1,5-a]pyrimidin-3-yl)-1H-benzo[d]imidazole-5,6-dicarbonitrile] | 8.82 | 8.66 | 8.81 | 7.09 | 1.2 | 1160 | 3.6 | 385 | 14 | 99 | –
4 | COC(=O)c1cc2nc(-c3cnn4ccc(N5CCC[C@@H]5c5cc(F)ccc5F)nc34)[nH]c2cc1OC [Compound 155, methyl (R)-2-(5-(2-(2,5-difluorophenyl)pyrrolidin-1-yl)pyrazolo[1,5-a]pyrimidin-3-yl)-6-methoxy-1H-benzo[d]imidazole-5-carboxylate] | 9.22 | 8.92 | 9.28 | 7.74 | – | – | – | – | – | – | –
5 | N#Cc1cc2nc(-c3cnn4ccc(N5CCC[C@@H]5c5cc(F)ccc5F)nc34)[nH]c2cc1OC(F)F [Compound 156, (R)-6-(difluoromethoxy)-2-(5-(2-(2,5-difluorophenyl)pyrrolidin-1-yl)pyrazolo[1,5-a]pyrimidin-3-yl)-1H-benzo[d]imidazole-5-carbonitrile] | 8.32 | 8.41 | 8.25 | 6.74 | – | – | – | – | – | – | –
6 | CNC(=O)c1cc2nc(-c3cnn4ccc(N5CCC[C@@H]5c5cc(F)ccc5F)nc34)[nH]c2cc1OC [Compound 160, (R)-2-(5-(2-(2,5-difluorophenyl)pyrrolidin-1-yl)pyrazolo[1,5-a]pyrimidin-3-yl)-6-methoxy-N-methyl-1H-benzo[d]imidazole-5-carboxamide] | 9.37 | 8.97 | 8.69 | 7.81 | 56.2 | 24.7 | 92.4 | 15 | 105 | 13.2 | –
7 | COCCOc1cc2[nH]c(-c3cnn4ccc(N5CCC[C@@H]5c5cc(F)ccc5F)nc34)nc2cc1C#N [Compound 169, (R)-2-(5-(2-(2,5-difluorophenyl)pyrrolidin-1-yl)pyrazolo[1,5-a]pyrimidin-3-yl)-6-(2-methoxyethoxy)-1H-benzo[d]imidazole-5-carbonitrile] | – | 8.54 | – | 6.99 | 55.8 | 24.8 | 78.4 | 17.7 | 102 | 13.5 | ≥ 8.00
8 | C[S+]([O-])c1cc2nc(-c3cnn4ccc(N5CCC[C@@H]5c5cc(F)ccc5F)nc34)[nH]c2cc1C#N (stereo partly drawn) [Compound 171, 2-(5-((R)-2-(2,5-difluorophenyl)pyrrolidin-1-yl)pyrazolo[1,5-a]pyrimidin-3-yl)-5-(methylsulfinyl)-1H-benzo[d]imidazole-6-carbonitrile] | 9.00 | 8.47 | 8.58 | 6.67 | 45.4 | 30.5 | 58.2 | 23.8 | 71.2 | 19.5 | –
9 | CS(=O)(=O)c1cc2nc(-c3cnn4ccc(N5CCC[C@@H]5c5cc(F)ccc5F)nc34)[nH]c2cc1C#N [Compound 172, (R)-2-(5-(2-(2,5-difluorophenyl)pyrrolidin-1-yl)pyrazolo[1,5-a]pyrimidin-3-yl)-5-(methylsulfonyl)-1H-benzo[d]imidazole-6-carbonitrile] | 9.22 | 8.68 | 8.60 | 6.59 | 41.6 | 33.3 | 44.8 | 30.9 | 32.4 | 42.8 | –
10 | CS(=O)(=O)c1cc2nc(-c3cnn4ccc(N5CCC[C@@H]5c5cc(F)ccc5F)nc34)[nH]c2cc1C(N)=O [Compound 173, (R)-2-(5-(2-(2,5-difluorophenyl)pyrrolidin-1-yl)pyrazolo[1,5-a]pyrimidin-3-yl)-5-(methylsulfonyl)-1H-benzo[d]imidazole-6-carboxamide] | – | 8.66 | – | 7.05 | 46.6 | 29.7 | 45.2 | 30.7 | 97.6 | 14.2 | ≥ 8.00
